From patent US6737383B1, “Herbicidal oxadiazolidines” (priority 1999, dated 2004)

What was measured:
[1] = system: surinam grass; assay: Test B pre/postemergence surinam grass; format: in vivo, Brachiaria decumbens
Outline: (§1)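 Test chemicals in a non-phytotoxic solvent mixture with surfactant were sprayed preemergence onto planted seeds and postemergence onto plants 2 to 18 cm tall (1- to 4-leaf stage). After twelve to sixteen days in a greenhouse, injury was visually rated against untreated controls from 0 (no effect) to 10 (complete control).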

[2] = system: corn; assay: Test B pre/postemergence corn; format: in vivo, Zea mays
Outline: as §1

[3] = system: morningglory; assay: Test B pre/postemergence morningglory; format: in vivo, Ipomoea hederacea
Outline: as §1

[4] = system: velvetleaf; assay: Test B pre/postemergence velvetleaf; format: in vivo, Abutilon theophrasti; details: for Plant response rating, Velvetleaf: Rate 250 g/ha
Outline: as §1

[5] = system: giant foxtail; assay: Test B pre/postemergence giant foxtail; format: in vivo, Setaria faberii
Outline: as §1

[6] = system: bedstraw; assay: Test B pre/postemergence bedstraw; format: in vivo, Galium aparine
Outline: as §1

[7] = system: wild oat; assay: Test B pre/postemergence wild oat; format: in vivo, Avena fatua; details: for Plant response rating, Wild oats: Rate 250 g/ha
Outline: as §1

[8] = system: smallflower flatsedge; assay: Test B flood test smallflower flatsedge; format: in vivo, Cyperus difformis
Outline: (§2)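 Plants were grown to the 2-leaf stage before treatment with test chemical, then held in a greenhouse for twelve to sixteen days. Injury was visually rated against untreated controls on a 0–10 scale, where 0 is no effect and 10 is complete control.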

[9] = system: cocklebur; assay: Test B pre/postemergence cocklebur; format: in vivo, Xanthium strumarium
Outline: as §1

[10] = system: blackgrass; assay: Test B pre/postemergence blackgrass; format: in vivo, Alopecurus myosuroides
Outline: as §1

[11] = system: duck salad; assay: Test B flood test duck salad; format: in vivo, Heteranthera limosa
Outline: as §2

[12] = system: purple nutsedge; assay: Test B pre/postemergence purple nutsedge; format: in vivo, Cyperus rotundus
Outline: as §1

[13] = system: rice; assay: Test B flood test rice; format: in vivo, Oryza sativa
Outline: as §2

[14] = system: crabgrass; assay: Test B pre/postemergence crabgrass; format: in vivo, Digitaria sanguinalis
Outline: as §1

[15] = system: wheat; assay: Test B pre/postemergence wheat; format: in vivo, Triticum aestivum; details: for Plant response rating, Wheat: Rate 250 g/ha
Outline: as §1

[16] = system: bamyardgrass; assay: Test B flood test barnyardgrass; format: in vivo, Echinochloa crus-galli
Outline: as §2

[17] = Postemergence, Rate 62 g/ha, scale 0 to 10, 0 is no effect, 10 is complete control
[18] = Postemergence, Rate 250 g/ha, scale 0 to 10, 0 no effect, 10 complete control
[19] = Preemergence, Rate 62 g/ha, scale 0 to 10 (0 no effect, 10 complete control)
[20] = Preemergence, Rate 125 g/ha, scale 0 to 10 (0 no effect, 10 complete control)
[21] = Preemergence, Rate 250 g/ha, scale of 0 to 10 where 0 is no effect and 10 is complete control
[22] = Preemergence, Rate 500 g/ha, scale 0 (no effect) to 10 (complete control)
[23] = Postemergence, Rate 125 g/ha, scale of 0 to 10 where 0 is no effect and 10 is complete control
[24] = Rate 62 g/ha, Postemergence, scale of 0 to 10 where 0 is no effect and 10 is complete control
[25] = Rate 500 g/ha, Postemergence, scale 0 to 10, 0 no effect, 10 complete control
[26] = Preemergence, Rate 125 g/ha, 0 is no effect, 10 is complete control
[27] = Preemergence, scale of 0 to 10 where 0 is no effect and 10 is complete control
[28] = Postemergence, scale 0 to 10, 0 is no effect, 10 is complete control
[29] = Postemergence (flood test species), Rate 125 g/ha, scale of 0 to 10 where 0 is no effect and 10 is complete control
[30] = Rate 62 g/ha, Postemergence section, flood test species, scale of 0 to 10 where 0 is no effect and 10 is complete control
[31] = Rate 250 g/ha, Postemergence (flood test), scale 0 to 10, 0 is no effect, 10 is complete control
[32] = Rate 500 g/ha, listed under Postemergence (flood test species), scale 0 to 10, 0 no effect, 10 complete control
[33] = flood test, listed under Postemergence, Rate 250 g/ha, scale 0 to 10, 0 no effect, 10 complete control

CCc1noc(C)c1-n1c(=O)on(C(=O)N(c2ccc(F)cc2)C(C)C)c1=O [Compound 101]
0: B. signalgrass plant response rating [1, 17] | B. signalgrass plant response rating [1, 18] | B. signalgrass plant response rating [1, 19] | Plant response rating, B. signalgrass [1, 20] | Plant response rating, B. signalgrass [1, 21] | B. signalgrass plant response rating [1, 22] | B. signalgrass plant response rating ([1]; Rate 125 g/ha, Postemergence, scale 0 to 10, 0 no effect, 10 complete control) | B. signalgrass plant response rating ([1]; Rate 500 g/ha, Postemergence, scale of 0 to 10 where 0 is no effect and 10 is complete control) | Corn plant response rating [2, 23] | Corn plant response rating [2, 18] | Corn plant response rating [2, 19] | Plant response rating, Corn [2, 20] | Plant response rating, Corn [2, 21] | Corn plant response rating [2, 22] | Corn plant response rating [2, 24] | Corn plant response rating [2, 25] | Morningglory plant response rating [3, 23] | Morningglory plant response rating [3, 19] | Plant response rating, Morningglory [3, 20] | Plant response rating, Morningglory [3, 21] | Morningglory plant response rating [3, 22] | Morningglory plant response rating [3, 24] | Velvetleaf plant response rating [4, 23] | Velvetleaf plant response rating [4, 19] | Velvetleaf plant response rating (0 to 10 scale) [4, 26] | Plant response rating, Velvetleaf [4, 27] | Velvetleaf plant response rating [4, 22] | Velvetleaf plant response rating [4, 24] | Plant response rating, Velvetleaf [4, 28] | Velvetleaf plant response rating [4, 25] | Giant foxtail plant response rating [5, 23] | Giant foxtail plant response rating [5, 18] | Giant foxtail plant response rating [5, 19] | Plant response rating, Giant foxtail [5, 20] | Plant response rating, Giant foxtail [5, 21] | Giant foxtail plant response rating [5, 22] | Giant foxtail plant response rating [5, 24] | Giant foxtail plant response rating [5, 25] | Bedstraw plant response rating [6, 19] | Plant response rating, Bedstraw [6, 20] | Plant response rating, Bedstraw [6, 21] | Bedstraw plant response rating [6, 22] | Bedstraw plant response rating [6, 25] | Wild oats plant response rating [7, 23] | Wild oats plant response rating [7, 19] | Wild oats plant response rating (0 to 10 scale) [7, 26] | Plant response rating, Wild oats [7, 27] | Wild oats plant response rating [7, 22] | Wild oats plant response rating [7, 24] | Plant response rating, Wild oats [7, 28] | Wild oats plant response rating [7, 25] | S. Flatsedge plant response rating [8, 29] | S. Flatsedge plant response rating [8, 30] | Plant response rating, S. Flatsedge [8, 31] | S. Flatsedge plant response rating [8, 32] | Cocklebur plant response rating [9, 23] | Cocklebur plant response rating [9, 18] | Cocklebur plant response rating [9, 19] | Plant response rating, Cocklebur [9, 20] | Plant response rating, Cocklebur [9, 21] | Cocklebur plant response rating [9, 24] | Cocklebur plant response rating [9, 25] | Blackgrass plant response rating [10, 23] | Blackgrass plant response rating [10, 18] | Blackgrass plant response rating [10, 19] | Plant response rating, Blackgrass [10, 20] | Plant response rating, Blackgrass [10, 21] | Blackgrass plant response rating [10, 22] | Blackgrass plant response rating [10, 24] | Blackgrass plant response rating [10, 25] | Ducksalad plant response rating [11, 29] | Ducksalad plant response rating [11, 30] | Ducksalad plant response rating [11, 32] | Ducksalad plant response rating [11, 33] | Nutsedge plant response rating [12, 23] | Nutsedge plant response rating [12, 18] | Nutsedge plant response rating [12, 19] | Plant response rating, Nutsedge [12, 20] | Plant response rating, Nutsedge [12, 21] | Nutsedge plant response rating [12, 22] | Nutsedge plant response rating [12, 24] | Nutsedge plant response rating [12, 25] | Rice plant response rating [13, 29] | Rice plant response rating [13, 30] | Plant response rating, Rice [13, 31] | Rice plant response rating [13, 32] | Crabgrass plant response rating [14, 23] | Crabgrass plant response rating [14, 18] | Crabgrass plant response rating [14, 19] | Plant response rating, Crabgrass [14, 20] | Plant response rating, Crabgrass [14, 21] | Crabgrass plant response rating [14, 22] | Crabgrass plant response rating [14, 24] | Crabgrass plant response rating [14, 25] | Wheat plant response rating [15, 23] | Wheat plant response rating [15, 19] | Wheat plant response rating (0 to 10 scale) [15, 26] | Plant response rating, Wheat [15, 27] | Wheat plant response rating [15, 22] | Wheat plant response rating [15, 24] | Plant response rating, Wheat [15, 28] | Wheat plant response rating [15, 25] | Barnyardgrass plant response rating [16, 17] | Barnyardgrass plant response rating ([16]; Rate 125 g/ha, Postemergence section (flood test species), scale 0 to 10, 0 no effect, 10 complete control) | Barnyardgrass plant response rating [16, 32] | Barnyardgrass plant response rating [16, 33]
1: Morningglory plant response rating [3, 18] | Morningglory plant response rating [3, 25]
